Laboratory results: PMC10257182, “Discovery of senolytics using machine learning” (Nature Communications, 2023)
“And” between values parts separate entries of the source, which are not always exact repeats. Identical values can stand only once.

How the values were obtained:
Assay type in all cases: cell-based, human
[1] = test system: senescent IMR90 ER:RAS cells (4-OHT-induced); test: Nuclei count (Hoechst, high content imaging) senolytic assay, oncogene-induced senescence (OIS) model, senescent cells; details: for Mean % Cell Survival: mean n=3 (Fig 3C)
Excerpt: (§1) To test for senolytic activity, we compared the effect of each compound on the total cell number (automated high content image-based analysis of total number of nuclei per well) in non-senescent and senescent IMR90 ER:RAS cultures treated with the top hits from the computational screen (Figs. 2e and 3a–d and Supplementary Fig. 4a–c). The drop in cell number compared to untreated controls is indicated by the nuclei count and reflects cell death[13],[15]. As positive control, we employed ouabain, a cardiac glycoside with well characterised senolytic activity.
(§2) We performed experimental validation of the compounds with z-score > 8 (Fig. 2e). […] We employed two cellular models of senescence: one of OIS and a second one of TIS. For the OIS case, we utilised IMR90 ER:RAS cells with 4-OHT at 100 nM. […] For the TIS model, we used A549 cells with etoposide at 100 μM. The exposure of the cells to etoposide lasted 48 h, after which period the cells were cultivated for a further three days with normal media.
(§3) IMR90 (CCL-186) human foetal lung fibroblasts and A549 (CCL-185) human lung adenocarcinoma cells were obtained from the American Type Culture Collection (ATCC, Manassas, VA). The cell lines were confirmed to be mycoplasma negative (Lonza MycoAlert, cat #LT07-118). IMR90 ER:RAS is a derivative of IMR90 cells expressing a switchable version of oncogenic H-Ras[84]. IMR90 ER:RAS and A549 cells were maintained in Dulbecco’s Modified Eagle Medium (DMEM, ThermoFisher) supplemented with foetal bovine serum (10%), L-glutamine (2 mM, ThermoFisher), and antibiotic-antimycotic solution (1%, ThermoFisher) and incubated under standard tissue culture conditions (37 °C and 5% CO2). For induction of the senescent phenotype, IMR90-ER:RAS cells were cultured in hydroxytamoxifen (4-OHT) (Sigma) added media at 100 nM final concentration. IMR90 were kept in culture for over 27 passages for replicative senescence. Cells were tested for mycoplasma on a regular basis.
(§4) Cells were seeded (50 μL per well) into 384-well plates (IMR90 ER:RAS cells in Nunc Optical Bottom Polybase Microplates [#142761, Thermo Scientific, Rochester, NY] and A549 cells in CELLSTAR Cell Culture Microplates [#781091, Greiner Bio-One, Kremsmünster, Austria]). Cells were incubated under standard tissue culture conditions for 24 h before the addition of compounds. Passage 14 IMR90 ER:RAS cells were seeded at 1300 cells per well in the control condition, and at 1600 cells per well in the senescent case. Passage 34 A549 cells were seeded at 7000 cells per well in the control condition, and at 10,000 cells per well in the senescent case.
(§5) Dose response plates were prepared with a DMSO control and a 10-point […] concentration range, and added to the compounds using a D300e digital dispenser (Tecan Trading AG, Switzerland) at a final concentration of between 10 μM and 10 nM. Every screened condition was carried out in triplicate. After 72 h of incubation with exposure to the compounds, cells were fixed by the addition of an equal volume of formaldehyde (8%, 50 μL; #BP531-500, Fisher Bioreagents, Fisher Scientific, Loughborough, Leicestershire) to the existing media, incubated at room temperature (30 min), and washed three times in phosphate-buffered saline (PBS). Cells were then permeabilised in Triton-X100 (0.1%, 50 μL) and incubated at room temperature (30 min) followed by three more washes with PBS.
(§6) Cells were stained with Hoechst 33342 for nuclei count (excitation/emission wavelength at 387/447 […], DAPI channel, original concentration at 10 mg/ml, final concentration at 2 μg/ml; H1399, Molecular Probes, Eugene, OR). The staining solution was prepared in bovine serum albumin solution (10%). The staining solution was added to each well (30 μL) and incubated in the dark at room temperature (30 min), followed by three washes with PBS and no final aspiration. Plates were foil sealed.

[2] = test system: non-senescent control IMR90 ER:RAS cells; test: Nuclei count (Hoechst, high content imaging) senolytic assay, OIS model, non-senescent control cells; details: for Mean % Cell Survival: mean n=3 (Fig 3C)
Excerpt: as §1, §2, §3, §4, §5, §6

[3] = test system: non-senescent control A549 cells; test: Nuclei count senolytic assay, TIS model, non-senescent control cells; details: Control cells, mean
Procedure: We performed a second validation of the effectiveness of our machine learning models using a different stressor. We focused on therapy-induced senescence (TIS, Supplementary Fig. 6a), where human epithelial cancerous cells (A549) were induced to become senescent by addition of etoposide. Cells were treated with 100 μM etoposide for 48 h, followed by another three days of exposure to media in standard conditions.
as §2, §3, §4, §5, §6
Plates were imaged on an ImageXpress micro XLS (Molecular Devices, Eugene, OR) equipped with a robotic plate loader (Scara4, PAA, UK).

## Cc1c(NC(=O)OC[C@@H]2COCCN2)cn2ncnc(Nc3ccc4c(cnn4Cc4cccc(F)c4)c3)c12.Cl.Cl [BMS 599626 2HCL, BMS 599626 dihydrochloride]
[1]; Senescent cells, log (dose) [M] -5, individual replicates, SUP FIG 4C
  % Cell Survival: 148.305% and 168.559% and 104.914%
[1]; Senescent cells, log (dose) [M] -5.33, individual replicates, SUP FIG 4C
  % Cell Survival: 96.2712% and 179.476% and 125.714%
[1]; Senescent cells, log (dose) [M] -5.66, individual replicates, SUP FIG 4C
  % Cell Survival: 153.051% and 117.467% and 95.5429%
[1]; Senescent cells, log (dose) [M] -6, individual replicates, SUP FIG 4C
  % Cell Survival: 117.797% and 133.042% and 86.6286%
[1]; Senescent cells, log (dose) [M] -6.33, individual replicates, SUP FIG 4C
  % Cell Survival: 137.458% and 98.5444% and 96.6857%
[1]; Senescent cells, log (dose) [M] -6.66, individual replicates, SUP FIG 4C
  % Cell Survival: 136.441% and 92.5764% and 82.2857%
[1]; Senescent cells, log (dose) [M] -7, individual replicates, SUP FIG 4C
  % Cell Survival: 136.102% and 95.3421% and 94.0571%
[1]; Senescent cells, log (dose) [M] -7.33, individual replicates, SUP FIG 4C
  % Cell Survival: 122.034% and 101.601% and 79.4286%
[1]; Senescent cells, log (dose) [M] -7.66, individual replicates, SUP FIG 4C
  % Cell Survival: 139.831% and 102.475% and 90.8571%
[1]; Senescent cells, log (dose) [M] -8, individual replicates, SUP FIG 4C
  % Cell Survival: 151.017% and 98.69% and 92.6857%
[1]; Senescent, log (dose) [M] -5, 72 h
  Mean % Cell Survival: 140.593%
[1]; Senescent, log (dose) [M] -5.33, 72 h
  Mean % Cell Survival: 133.82%
[1]; Senescent, log (dose) [M] -5.66, 72 h
  Mean % Cell Survival: 122.02%
[1]; Senescent, log (dose) [M] -6, 72 h
  Mean % Cell Survival: 112.489%
[1]; Senescent, log (dose) [M] -6.33, 72 h
  Mean % Cell Survival: 110.896%
[1]; Senescent, log (dose) [M] -6.66, 72 h
  Mean % Cell Survival: 103.768%
[1]; Senescent, log (dose) [M] -7, 72 h
  Mean % Cell Survival: 108.5%
[1]; Senescent, log (dose) [M] -7.33, 72 h
  Mean % Cell Survival: 101.021%
[1]; Senescent, log (dose) [M] -7.66, 72 h
  Mean % Cell Survival: 111.054%
[1]; Senescent, log (dose) [M] -8, 72 h
  Mean % Cell Survival: 114.131%
[1]; Senescent, log (dose) [M] -5
  % Cell Survival: 90.7857%
[1]; Senescent, log (dose) [M] -5.33
  % Cell Survival: 83.9286%
[1]; Senescent, log (dose) [M] -5.66
  % Cell Survival: 68.2857%
[1]; Senescent, log (dose) [M] -6
  % Cell Survival: 92.9286%
[1]; Senescent, log (dose) [M] -6.33
  % Cell Survival: 86.7857%
[1]; Senescent, log (dose) [M] -6.66
  % Cell Survival: 103.929%
[1]; Senescent, log (dose) [M] -7
  % Cell Survival: 113.571%
[1]; Senescent, log (dose) [M] -7.33
  % Cell Survival: 119.214%
[1]; Senescent, log (dose) [M] -7.66
  % Cell Survival: 109.286%
[1]; Senescent, log (dose) [M] -8
  % Cell Survival: 117.714%
[2]; Control cells, log (dose) [M] -5, individual replicates, SUP FIG 4C
  % Cell Survival: 105.353% and 91.3279% and 103.579%
[2]; Control cells, log (dose) [M] -5.33, individual replicates, SUP FIG 4C
  % Cell Survival: 86.7238% and 73.5321% and 81.9018%
[2]; Control cells, log (dose) [M] -5.66, individual replicates, SUP FIG 4C
  % Cell Survival: 118.415% and 87.5339% and 100.613%
[2]; Control cells, log (dose) [M] -6, individual replicates, SUP FIG 4C
  % Cell Survival: 100.107% and 87.4435% and 90.184%
[2]; Control cells, log (dose) [M] -6.33, individual replicates, SUP FIG 4C
  % Cell Survival: 111.884% and 90.2439% and 100.716%
[2]; Control cells, log (dose) [M] -6.66, individual replicates, SUP FIG 4C
  % Cell Survival: 106.852% and 86.4499% and 109.816%
[2]; Control cells, log (dose) [M] -7, individual replicates, SUP FIG 4C
  % Cell Survival: 101.927% and 74.8871% and 92.5358%
[2]; Control cells, log (dose) [M] -7.33, individual replicates, SUP FIG 4C
  % Cell Survival: 103.426% and 89.7922% and 99.3865%
[2]; Control cells, log (dose) [M] -7.66, individual replicates, SUP FIG 4C
  % Cell Survival: 119.807% and 91.5989% and 105.93%
[2]; Control cells, log (dose) [M] -8, individual replicates, SUP FIG 4C
  % Cell Survival: 100.749% and 77.0551% and 102.454%
[2]; Control, log (dose) [M] -5, 72 h
  Mean % Cell Survival: 100.087%
[2]; Control, log (dose) [M] -5.33, 72 h
  Mean % Cell Survival: 80.7192%
[2]; Control, log (dose) [M] -5.66, 72 h
  Mean % Cell Survival: 102.188%
[2]; Control, log (dose) [M] -6, 72 h
  Mean % Cell Survival: 92.5782%
[2]; Control, log (dose) [M] -6.33, 72 h
  Mean % Cell Survival: 100.948%
[2]; Control, log (dose) [M] -6.66, 72 h
  Mean % Cell Survival: 101.039%
[2]; Control, log (dose) [M] -7, 72 h
  Mean % Cell Survival: 89.7834%
[2]; Control, log (dose) [M] -7.33, 72 h
  Mean % Cell Survival: 97.535%
[2]; Control, log (dose) [M] -7.66, 72 h
  Mean % Cell Survival: 105.779%
[2]; Control, log (dose) [M] -8, 72 h
  Mean % Cell Survival: 93.4195%
[2]; Control, log (dose) [M] -5
  % Cell Survival: 100.351% and 111.029% and 102.815%
[2]; Control, log (dose) [M] -5.33
  % Cell Survival: 101.964% and 126.351% and 107.239%
[2]; Control, log (dose) [M] -5.66
  % Cell Survival: 131.276% and 125.833% and 112.534%
[2]; Control, log (dose) [M] -6
  % Cell Survival: 101.823% and 113.768% and 114.812%
[2]; Control, log (dose) [M] -6.33
  % Cell Survival: 107.574% and 113.397% and 102.681%
[2]; Control, log (dose) [M] -6.66
  % Cell Survival: 98.317% and 111.029% and 104.088%
[2]; Control, log (dose) [M] -7
  % Cell Survival: 103.156% and 106.366% and 100.335%
[2]; Control, log (dose) [M] -7.33
  % Cell Survival: 103.086% and 108.882% and 96.7828%
[2]; Control, log (dose) [M] -7.66
  % Cell Survival: 97.5456% and 102.221% and 100.201%
[2]; Control, log (dose) [M] -8
  % Cell Survival: 96.0028% and 99.7779% and 101.072%
[3]; log (dose) [M] -5
  Mean % Cell Survival: 104.732%
[3]; log (dose) [M] -5.33
  Mean % Cell Survival: 111.851%
[3]; log (dose) [M] -5.66
  Mean % Cell Survival: 123.214%
[3]; log (dose) [M] -6
  Mean % Cell Survival: 110.134%
[3]; log (dose) [M] -6.33
  Mean % Cell Survival: 107.884%
[3]; log (dose) [M] -6.66
  Mean % Cell Survival: 104.478%
[3]; log (dose) [M] -7
  Mean % Cell Survival: 103.285%
[3]; log (dose) [M] -7.33
  Mean % Cell Survival: 102.917%
[3]; log (dose) [M] -7.66
  Mean % Cell Survival: 99.9891%
[3]; log (dose) [M] -8
  Mean % Cell Survival: 98.951%
